Patent US20100184134A1, “DUAL CHARGING SYSTEM FOR SELECTIVELY INTRODUCING NON-NATIVE AMINO ACIDS INTO PROTEINS USING AN IN VITRO SYNTHESIS METHOD” (priority 2009, published 2010)
pIC50: −log10 of the molar value.

What was measured:
GluRS = GluRS (Escherichia coli, UniProt P04805); settings: read-out: IC50 for inhibition of the rate of cell-free synthesis of turboGFP; cell-free reaction at 30° C., fluorescence monitored for 5 h, maximal rate of fluorescence change
Source text: (§1) Cell-free extracts or lysates were generated to maximize ribosome yield using rapid growth of high cell density fermentations of E. coli strain KGK10 (Knapp, Goerke et al. (2007) Biotechnol Bioeng, 97, 901-8), essentially as described by Liu et al.(Liu, Zawada et al. (2005) Biotechnol Prog, 21, 460-5) DL-dithiothreitol was not added to the cell lysate following homogenization. A modified “run-off procedure” was used to prepare the cell-free extract. Fermentation volume to generate sufficient cell-free extract was typically 2.5× the desired cell-free reaction volume. To inactivate the reducing activity of the cell extract, iodoacetamide (IAM) at various concentrations was added as previously described (Yang, Kanter et al. (2004) Biotechnol Prog, 20, 1689-96). Gene expression was under the control of the T7 promoter. In order to facilitate translation initiation, genes were synthesized (DNA 2.0, Menlo Park, Calif.) with synonymous codons at the 5′ end of the gene with ATG start codon (N-terminal methionine residue) optimized for mRNA instability as measured by mRNA ΔGfold in the −6 to +37 positions (Kudla, Murray et al. (2009) Science, 324, 255-258) and rare codons were replaced. […]

[1] = molecular target: T1, endogenous activity of PheRS (Escherichia coli, UniProt P08312); test: Cell-free synthesis of turboGFP Y50TAG with added uncharged tRNAs in the presence of Phe-SA; format: biochemical, E. coli; settings: 12 nM Phe-SA; uncharged tRNACUA^Phe and tRNAGAA^Phe added
T1 construct: endogenous in cells; host or cells: cell-free extract (lysate) of E. coli strain KGK10
Procedure: A control reaction containing turboGFP Y50TAG plasmid only yields no fluorescence, consistent with the ca. 6 kD truncated product (cf FIG. 22). The incorporation of para-acetyl phenylalanine at position 50 using the UAG-specific E. coli phenylalanine tRNACUA^Phe and tRNAGAA^Phe was measured in the presence 12 nM Phe-SA inhibitor, to inhibit the endogenous activity of PheRS (cf. FIG. 19c). […] In contrast, addition of various concentrations of both charged pAF-tRNACUA^Phe and Phe-tRNAGAA^Phe results in 13-20% of the wild-type fluorescence after 5 h, consistent with significant protein synthesis with incorporation of pAF at position 50.

PheRS = molecular target: T2, PheRS (Escherichia coli, UniProt P08312); test: Inhibition of the rate of cell-free synthesis of turboGFP by Phe-SA; format: biochemical, E. coli
T2 construct: endogenous in cells; host or cells: cell-free extract (lysate) of E. coli strain KGK10
Source text: as §1

T2 sequence (P07395 whole entry): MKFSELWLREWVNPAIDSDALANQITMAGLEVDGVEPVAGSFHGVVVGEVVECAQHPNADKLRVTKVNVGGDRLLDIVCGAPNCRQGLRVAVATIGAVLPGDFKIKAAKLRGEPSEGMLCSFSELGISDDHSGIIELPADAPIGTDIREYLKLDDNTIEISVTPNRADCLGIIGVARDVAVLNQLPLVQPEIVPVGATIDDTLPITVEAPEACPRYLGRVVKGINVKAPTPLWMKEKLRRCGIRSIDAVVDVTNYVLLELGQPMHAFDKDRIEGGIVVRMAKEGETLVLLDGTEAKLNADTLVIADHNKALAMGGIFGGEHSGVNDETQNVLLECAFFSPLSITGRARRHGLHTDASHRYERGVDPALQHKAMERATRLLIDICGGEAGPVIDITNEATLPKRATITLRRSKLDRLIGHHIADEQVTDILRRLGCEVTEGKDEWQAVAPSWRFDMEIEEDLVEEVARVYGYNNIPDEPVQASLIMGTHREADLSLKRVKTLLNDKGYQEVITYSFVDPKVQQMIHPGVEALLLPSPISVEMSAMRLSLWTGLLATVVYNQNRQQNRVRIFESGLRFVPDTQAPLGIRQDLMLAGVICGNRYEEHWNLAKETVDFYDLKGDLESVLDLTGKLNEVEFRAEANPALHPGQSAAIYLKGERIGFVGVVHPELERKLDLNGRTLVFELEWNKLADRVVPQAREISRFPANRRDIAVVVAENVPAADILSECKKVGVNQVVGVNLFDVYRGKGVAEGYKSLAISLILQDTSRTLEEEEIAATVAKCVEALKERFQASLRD
T2 sequence (P08312 whole entry): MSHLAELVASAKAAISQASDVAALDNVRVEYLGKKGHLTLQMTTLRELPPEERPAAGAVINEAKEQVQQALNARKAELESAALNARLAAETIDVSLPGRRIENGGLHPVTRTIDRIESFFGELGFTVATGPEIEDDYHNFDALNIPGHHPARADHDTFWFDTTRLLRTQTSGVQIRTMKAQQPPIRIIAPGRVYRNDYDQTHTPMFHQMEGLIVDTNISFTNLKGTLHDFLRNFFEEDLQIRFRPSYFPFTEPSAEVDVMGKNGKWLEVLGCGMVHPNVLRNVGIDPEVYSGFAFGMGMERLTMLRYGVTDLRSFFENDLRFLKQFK
T1 sequence (P08312 whole entry): as above
T1 sequence (P07395 whole entry, further chain): as the sequence (P07395 whole entry) above
Sequence of GluRS (P04805 whole entry): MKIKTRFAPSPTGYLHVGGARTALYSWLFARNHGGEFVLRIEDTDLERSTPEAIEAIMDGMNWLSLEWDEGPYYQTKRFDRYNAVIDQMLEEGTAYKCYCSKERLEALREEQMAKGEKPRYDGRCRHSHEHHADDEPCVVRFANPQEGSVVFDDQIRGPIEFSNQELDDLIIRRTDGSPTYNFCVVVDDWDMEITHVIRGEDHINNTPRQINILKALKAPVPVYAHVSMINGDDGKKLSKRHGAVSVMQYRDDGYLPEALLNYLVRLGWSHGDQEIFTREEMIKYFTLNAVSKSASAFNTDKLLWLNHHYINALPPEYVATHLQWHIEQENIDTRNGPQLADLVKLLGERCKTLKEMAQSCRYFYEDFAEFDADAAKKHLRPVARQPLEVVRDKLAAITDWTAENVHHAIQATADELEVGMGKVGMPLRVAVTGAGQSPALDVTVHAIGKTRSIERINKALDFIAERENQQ

| SMILES | pIC50 (GluRS) | inhibition of PheRS (no protein synthesized with uncharged tRNAs) [1] | pIC50 (PheRS) | turboGFP fluorescence activity (percent relative activity) (PheRS; 1 nM Phe-SA inhibitor) |
| --- | --- | --- | --- | --- |
| Nc1ncnc2c1ncn2[C@@H]1O[C@H](COS(=O)(=O)NC(=O)[C@@H](N)CCC(=O)O)[C@@H](O)[C@H]1O [Glu-SA] | 7.27 | – | – | – |
| Nc1ncnc2c1ncn2[C@@H]1O[C@H](COS(=O)(=O)NC(=O)[C@@H](N)Cc2ccccc2)[C@@H](O)[C@H]1O [Phe-SA, 5′-O-[N-(Phenylalanyl)sulfamoyl] adenosine] | – | completely inhibited | 9.10 | ~50% |
